{
  "source": "patent US20150218594A1",
  "about": "“CELL-FREE AND MINIMIZED METABOLIC REACTION CASCADES FOR THE PRODUCTION OF CHEMICALS” (CLARIANT PRODUKTE (DEUTSCHLAND) GMBH, priority 2012, published 2015)",
  "key": {"[1]": {"settings": "20° C.; cited from earlier work"}, "E. coli": {"test_system": "E. coli", "settings": "recombinant fermentative production in E. coli; cited from earlier work"}, "[2]": {"test_system": "artificial enzyme cascade", "experiment": "Solvent tolerance of the artificial enzyme cascade (glucose to ethanol with increasing isobutanol)", "type": "biochemical", "experimental": "A key characteristic of cell-free systems is their pronounced tolerance against higher alcohols.\nAll reactions were set up in 20 ml GC vials. Reaction mixtures contained 100 mM HEPES (pH 7 at 50° C.), 0.1 mM thiamine-pyrophosphate, 2.5 mM MgCl2, 25 mM D-glucose and 5 mM NAD. […] Reaction mixtures were placed in a water bath at 50° C. and gently stirred at 100 rpm."}, "microbial cells": {"test_system": "microbial cells", "settings": "cited from earlier work"}},
  "data": [
    {"molecule": "CCC(C)O", "note": "(stereo not shown) [2-Butanol]", "values": [
      {"measurement": "restricted miscibility in water", "setting": "[1]", "result": "about 12%"}
    ]},
    {"molecule": "CC(C)CO", "note": "[isobutanol]", "values": [
      {"measurement": "isobutanol titers that induce toxic effects in the microbial production host", "setting": "E. coli", "result": "1-2 % (v/v)"},
      {"measurement": "ethanol produced in the presence of 6% (v/v) isobutanol", "setting": "[2]; 6% (v/v) isobutanol, in 8 h", "result": 1.4, "unit": "mM"},
      {"measurement": "isobutanol concentration up to which cell-free ethanol productivity and reaction kinetics were not significantly affected", "setting": "[2]; glucose to ethanol as in Example 1, 50° C.", "result": "up to 4 % (v/v)"},
      {"measurement": "isobutanol concentration that results in loss of productivity of microbial cells", "setting": "microbial cells", "result": "ca. 1 % v/v"},
      {"measurement": "restricted miscibility in water", "setting": "[1]", "result": "9-10%"}
    ]},
    {"molecule": "CCCCO", "note": "[n-Butanol]", "values": [
      {"measurement": "restricted miscibility in water", "setting": "[1]", "result": "7-8%"}
    ]}
  ]
}
